According to patent US10961238B2, “Modulators of hedgehog (Hh) signaling pathway” (E-THERAPEUTICS PLC, priority 2016, dated 2021):
Like-named read-outs stand apart in the source and are kept apart here.

System: C3H10T1/2 cells
Experiment: C3H assay: differentiation of C3H10T1/2 cells by mSHH, measurement of alkaline phosphatase
Assay type: cell-based, mouse
Details: Mus musculus, read-out: IC50 Ranges
[1] = C3H 10T1/2, C3H10T1/2 cells stimulated with mSHH for 72 hours, alkaline phosphatase activity

Row | Structure (SMILES) | IC50 [1] [nM] | IC50 (C3H 10T1/2, 72 h) [nM]
1 | CC(C)C(C(C)C)N1CC(S(=O)(=O)N2CCC(c3c[nH]c4ncccc34)CC2)C1 [Compound 148, 3-[1-[1-(2,4-dimethylpentan-3-yl)azetidin-3-yl]sulfonylpiper-idin-4-yl]-1H-pyrrolo[2,3-b]pyridine] | 1000 to 10000 | –
2 | COC(=O)N1CC(S(=O)(=O)N2CCC(c3c[nH]c4ncccc34)CC2)C1 [Compound 151, methyl 3-[4-(1H-pyrrolo [2,3-b]pyridin-3-yl)piperidin-1-yl]sulfonylaze-tidine-1-carboxylate] | 100 to 1000 | –
3 | COCC(C)(C)OC(=O)N1CC(S(=O)(=O)N2CCC(c3c[nH]c4ncccc34)CC2)C1 [Compound 152, (1-methoxy-2-methylpropan-2-yl) 3-[4-(1H-pyrrolo[2,3-b]pyridin-3-yl)piperidin-1-yl]sulfonylaze-tidine-1-carboxylate] | < 10 | –
4 | CC[C@H](C)OC(=O)N1CC(S(=O)(=O)N2CCC(c3c[nH]c4ncccc34)CC2)C1 [Compound 153, [(2S)-butan-2-yl] 3-[4-(1H-pyrrolo[2,3-b]pyridin-3-yl)piperidin-1-yl]sulfonylaze-tidine-1-carboxylate] | 10 to 100 | –
5 | O=S(=O)(C1CN(c2ncccn2)C1)N1CCC(c2c[nH]c3ncccc23)CC1 [Compound 155, 3-[1-(1-pyrimidin-2-ylazetidin-3-yl)sulfonylpiper-idin-4-yl]-1H-pyrrolo[2,3-b]pyridine] | 100 to 1000 | –
6 | CCN(C(=O)N1CC(S(=O)(=O)N2CCC(c3c[nH]c4ncccc34)CC2)C1)C(C)(C)C [Compound 156, N-tert-butyl-N-ethyl-3-[4-(1H-pyrrolo[2,3-b]pyridin-3-yl)piperidin-1-yl]sulfonylaze-tidine-1-carboxamide] | < 10 | –
7 | O=S(=O)(C1CN(Cc2cccnc2)C1)N1CCC(c2c[nH]c3ncccc23)CC1 [Compound 157, 3-[1-[1-(pyridin-3-ylmethyl)azetidin-3-yl]sulfonylpiper-idin-4-yl]-1H-pyrrolo[2,3-b]pyridine] | 1000 to 10000 | –
8 | O=S(=O)(C1CN(C2CCCC2)C1)N1CCC(c2c[nH]c3ncccc23)CC1 [Compound 158] | 1000 to 10000 | –
9 | CC1(CN2CC(S(=O)(=O)N3CCC(c4c[nH]c5ncccc45)CC3)C2)COC1 [Compound 159, 3-[1-[1-[(3-methyloxetan-3-yl)methyl]azetidin-3-yl]-sulfonylpiper-idin-4-yl]-1H-pyrrolo[2,3-b]pyridine] | 1000 to 10000 | –
10 | O=C(OC[C@@H]1CCCO1)N1CC(S(=O)(=O)N2CCC(c3c[nH]c4ncccc34)CC2)C1 [Compound 163, [(2S)-oxolan-2-yl]methyl 3-[4-(1H-pyrrolo[2,3-b]pyridin-3-yl)piperidin-1-yl]sulfonylaze-tidine-1-carboxylate] | 10 to 100 | –
11 | C[C@@H]1CN(C(=O)N2CC(S(=O)(=O)N3CCC(c4c[nH]c5ncccc45)CC3)C2)C[C@@H](C)O1 [Compound 164, [(2R,6R)-2,6-dimethylmorpholin-4-yl]-[3-[4-(1H-pyrrolo[2,3-b]pyridin-3-yl)piperidin-1-yl]sulfonylaze-tidin-1-yl]methanone] | 10 to 100 | –
12 | C[C@H]1COC[C@H](C)N1C(=O)N1CC(S(=O)(=O)N2CCC(c3c[nH]c4ncccc34)CC2)C1 [Compound 165, [(3S,5S)-3,5-dimethylmorpholin-4-yl]-[3-[4-(1H-pyrrolo[2,3-b]pyridin-3-yl)piperidin-1-yl]sulfonylaze-tidin-1-yl]methanone] | 100 to 1000 | –
13 | CN(C)C(=O)N1CC(S(=O)(=O)N2CCC(c3c[nH]c4ncccc34)CC2)C1 [Compound 167, N,N-dimethyl-3-[4-(1H-pyrrolo[2,3-b]pyridin-3-yl)piperidin-1-yl]sulfonylaze-tidine-1-carboxamide] | 1000 to 10000 | –
14 | CC1(C)COCC(C)(C)N1C(=O)N1CC(S(=O)(=O)N2CCC(c3c[nH]c4ncccc34)CC2)C1 [Compound 169, [3-[4-(1H-pyrrolo[2,3-b]pyridin-3-yl)piperidin-1 yl]sulfonylaze-tidin-1-yl]-(3,3,5,5-tetramethylmorpholin-4-yl)methanone] | 10 to 100 | –
15 | C[C@@H]1CN(C(=O)N2CC(S(=O)(=O)N3CCC(c4c[nH]c5ncccc45)CC3)C2)C[C@H](C)O1 [Compound 170] | – | 10 to 100
16 | CC(C)(C)OC(=O)N1CCN(S(=O)(=O)N2CC(S(=O)(=O)N3CCC(c4c[nH]c5ncccc45)CC3)C2)CC1 [Compound 172, tert-butyl 4-[3-[4-(1H-pyrrolo[2,3-b]pyridin-3-yl)piperidin-1-yl]sulfonylaze-tidin-1-yl] sulfonylpiper-azine-1-carboxylate] | 10 to 100 | –
17 | CC(C)N(C(=O)N1CC(S(=O)(=O)N2CCC(c3c[nH]c4ncccc34)CC2)C1)C(C)C [Compound 173, N,N-Diisopropyl-3-[[4-(1H-pyrrolo[2,3-b]pyridin-3-yl)-1-piperidyl]sulfonyl]azetidine-1-carboxamide] | 100 to 1000 | –
18 | CN(C(=O)N1CC(S(=O)(=O)N2CCC(c3c[nH]c4ncccc34)CC2)C1)C(C)(C)C [Compound 176, N-tert-butyl-N-methyl-3-[4-(1H-pyrrolo[2,3-b]pyridin-3-yl)piperidin-1-yl]sulfonylaze-tidine-1-carboxamide] | < 10 | –

Row | Structure (SMILES) | IC50 [1] [nM] | IC50 (C3H 10T1/2, 72 h) [nM]
19 | CN(Cc1ccco1)C(=O)N1CC(S(=O)(=O)N2CCC(c3c[nH]c4ncccc34)CC2)C1 [Compound 178, N-(2-Furylmethyl)-N-methyl-3-[[4-(1H-pyrrolo[2,3-b]pyridin-3-yl)-1-piperidyl]sulfonyl]azetidine-1-carboxamide] | 10 to 100 | –
20 | CC(C)NC(=S)N1CC(S(=O)(=O)N2CCC(c3c[nH]c4ncccc34)CC2)C1 [Compound 179, N-propan-2-yl-3-[4-(1H-pyrrolo[2,3-b]pyridin-3-yl)piperidin-1-yl]sulfonylaze-tidine-1-carbo-thioamide] | 10 to 100 | –
21 | COC1CCC(OC(=O)N2CC(S(=O)(=O)N3CCC(c4c[nH]c5ncccc45)CC3)C2)CC1 (centres unmarked) [Compound 180, (4-methoxycyclohexyl) 3-[4-(1H-pyrrolo[2,3-b]pyridin-3-yl)piperidin-1-yl]sulfonylaze-tidine-1-carboxylate] | 10 to 100 | –
22 | O=S(=O)(C1CN(c2ncccc2C2CC2)C1)N1CCC(c2c[nH]c3ncccc23)CC1 [Compound 181, 3-[1-[1-(3-cyclopropylpy-ridin-2-yl)azetidin-3-yl]sulfonylpiper-idin-4-yl]-1H-pyrrolo[2,3-b]pyridine] | 10 to 100 | –
23 | O=S(=O)(C1CN(c2ncccc2CO)C1)N1CCC(c2c[nH]c3ncccc23)CC1 [Compound 182, [2-[3-[4-(1H-pyrrolo[2,3-b]pyridin-3-yl)piperidin-1-yl]sulfonylaze-tidin-1-yl]pyridin-3-yl]methanol] | 10 to 100 | –
24 | O=C(Oc1ccccc1O)N1CC(S(=O)(=O)N2CCC(c3c[nH]c4ncccc34)CC2)C1 [Compound 183, (2-hydroxyphenyl) 3-[4-(1H-pyrrolo[2,3-b]pyridin-3-yl)piperidin-1-yl]sulfonylaze-tidine-1-carboxylate] | 100 to 1000 | –
25 | O=S(=O)(C1CN(c2nc(C(F)(F)F)ccc2C(F)(F)F)C1)N1CCC(c2c[nH]c3ncccc23)CC1 [Compound 184, 3-[1-[1-[3,6-bis(trifluoromethyl)pyridin-2-yl]azetidin-3-yl]sulfonylpiper-idin-4-yl]-1H-pyrrolo[2,3-b]pyridine] | 100 to 1000 | –
26 | COc1ccc(C(F)(F)F)c(N2CC(S(=O)(=O)N3CCC(c4c[nH]c5ncccc45)CC3)C2)n1 [Compound 185, 3-[1-[1-[6-methoxy-3-(trifluoromethyl)pyridin-2-yl]azetidin-3-yl]sulfonylpiper-idin-4-yl]-1H-pyrrolo[2,3-b]pyridine] | 100 to 1000 | –
27 | O=S(=O)(C1CN(c2ncccc2C(F)(F)F)C1)N1CCC(c2c[nH]c3ncccc23)CC1 [Compound 186, 3-[1-[1-[3-(trifluoromethyl)pyridin-2-yl]azetidin-3-yl]sulfonylpiper-idin-4-yl]-1H-pyrrolo [2,3-b]pyridine] | 100 to 1000 | –
28 | Cc1ccnc(N2CC(S(=O)(=O)N3CCC(c4c[nH]c5ncccc45)CC3)C2)c1C#N [Compound 187, 4-methyl-2-[3-[4-(1H-pyrrolo[2,3-b]pyridin-3-yl)piperidin-1-yl]sulfonylaze-tidin-1-yl]pyridine-3-carbonitrile] | 100 to 1000 | –
29 | O=C(C1CCCCC1)N1CC(S(=O)(=O)N2CCC(c3c[nH]c4ncccc34)CC2)C1 [Compound 189, Cyclohexyl-[3-[[4-(1H-pyrrolo[2,3-b]pyridin-3-yl)-1-piperidyl]sulfonyl]azetidin-1-yl]methanone] | 10 to 100 | –
30 | O=C(C1CCCC1)N1CC(S(=O)(=O)N2CCC(c3c[nH]c4ncccc34)CC2)C1 [Compound 190, cyclopentyl-[3-[4-(1H-pyrrolo[2,3-b]pyridin-3-yl)piperidin-1-yl]sulfonylaze-tidin-1-yl]methanone] | 10 to 100 | –
31 | O=C(C1CC1)N1CC(S(=O)(=O)N2CCC(c3c[nH]c4ncccc34)CC2)C1 [Compound 191, cyclopropyl-[3-[4-(1H-pyrrolo[2,3-b]pyridin-3-yl)piperidin-1-yl]sulfonylaze-tidin-1-yl]methanone] | 100 to 1000 | –
32 | O=C(c1ccccn1)N1CC(S(=O)(=O)N2CCC(c3c[nH]c4ncccc34)CC2)C1 [Compound 192, pyridin-2-yl-[3-[4-(1H-pyrrolo[2,3-b]pyridin-3-yl)piperidin-1-yl]sulfonylaze-tidin-1-yl]methanone] | 100 to 1000 | –
33 | O=C(c1cccs1)N1CC(S(=O)(=O)N2CCC(c3c[nH]c4ncccc34)CC2)C1 [Compound 193, [3-[4-(1H-pyrrolo[2,3-b]pyridin-3-yl)piperidin-1-yl]sulfonylaze-tidin-1-yl]-thiophen-2-ylmethanone] | 10 to 100 | –
34 | CC(C)C(=O)N1CC(S(=O)(=O)N2CCC(c3c[nH]c4ncccc34)CC2)C1 [Compound 194, 2-methyl-1-[3-[4-(1H-pyrrolo[2,3-b]pyridin-3-yl)piperidin-1-yl]sulfonylaze-tidin-1-yl]propan-1-one] | 100 to 1000 | –
35 | CC(C)CC(=O)N1CC(S(=O)(=O)N2CCC(c3c[nH]c4ncccc34)CC2)C1 [Compound 195, 3-methyl-1-[3-[4-(1H-pyrrolo[2,3-b]pyridin-3-yl)piperidin-1-yl]sulfonylaze-tidin-1-yl]butan-1-one] | 10 to 100 | –
